Experimental findings from ChEMBL document CHEMBL5724914, “Linking interpersonal differences in gut microbiota composition and drug biotransformation activity” (2024) are described below.

Series [1] in a line: The drug is tested on WLS-310 corresponding to human gut metagenome with ENA study accession number: PRJEB37062 and ENA sample accession number: ERS12561785 for biotransformation under anaerobic condition. The drug concentrations were measured over 9 timepoints collected between 0 and 24 hours of incubation by liquid-chromatography-coupled mass spectrometry (LC–MS). Particulars: 2 µM.

Series [2] in a line: The drug is tested on WLS-090 corresponding to human gut metagenome with ENA study accession number: PRJEB37062 and ENA sample accession number: ERS12561753 for biotransformation under anaerobic condition. The drug concentrations were measured over 9 timepoints collected between 0 and 24 hours of incubation by liquid-chromatography-coupled mass spectrometry (LC–MS). Particulars: 2 µM.

Series [3] is described as follows: The drug is tested on WLS-039 corresponding to human gut metagenome with ENA study accession number: PRJEB37062 and ENA sample accession number: ERS12561746 for biotransformation under anaerobic condition. The drug concentrations were measured over 9 timepoints collected between 0 and 24 hours of incubation by liquid-chromatography-coupled mass spectrometry (LC–MS). Particulars: 2 µM.

A short description of series [4]: The drug is tested on WLS-038 corresponding to human gut metagenome with ENA study accession number: PRJEB37062 and ENA sample accession number: ERS12561745 for biotransformation under anaerobic condition. The drug concentrations were measured over 9 timepoints collected between 0 and 24 hours of incubation by liquid-chromatography-coupled mass spectrometry (LC–MS). Particulars: 2 µM.

Series [5] is described as follows: The drug is tested on WLS-007 corresponding to human gut metagenome with ENA study accession number: PRJEB37062 and ENA sample accession number: ERS12561742 for biotransformation under anaerobic condition. The drug concentrations were measured over 9 timepoints collected between 0 and 24 hours of incubation by liquid-chromatography-coupled mass spectrometry (LC–MS). The note with it: 2 µM.

The conditions of series [6]: human gut metagenome, 24 h, 2 µM.
The conditions of series [7]: human gut metagenome, 24 h, 2 µM. The source holds these as a separate data set.
For series [8] the following is noted: human gut metagenome, 24 h, 2 µM. This is another data set of the same source.
The conditions of series [9]: human gut metagenome, 24 h, 2 µM. The source holds these as a separate data set.
The conditions of series [10]: human gut metagenome, 24 h, 2 µM. This is another data set of the same source.
For series [11] the following is noted: human gut metagenome, 24 h, 2 µM. The source holds these as a separate data set.
For series [12] the following is noted: human gut metagenome, 24 h, 2 µM. This is another data set of the same source.
For series [13] the following is noted: human gut metagenome, 24 h, 2 µM. The source holds these as a separate data set.
The conditions of series [14]: human gut metagenome, 24 h, 2 µM. This is another data set of the same source.
For series [15] the following is noted: human gut metagenome, 24 h, 2 µM. This is another data set of the same source.
For series [16] the following is noted: human gut metagenome, 24 h, 2 µM. The source holds these as a separate data set.

The structures appear in SMILES notation.
Also: call rule not given here.

Regarding `N#Cc1ccc2c(c1)N(CCCN1CCC(O)CC1)c1ccccc1S2` [PERICIAZINE], the “Bacterial Biotransformation” value was “Compound metabolized” in series [1]; “Compound metabolized” in [2]; “Compound NOT metabolized” in [3]; “Compound metabolized” in series [4]; “Compound NOT metabolized” in [5]; “Compound NOT metabolized” in series [6]. Further, the “Bacterial Biotransformation” value in series [7] is recorded as “Compound NOT metabolized”; in series [8], “Compound NOT metabolized”; in series [9], “Compound NOT metabolized”; in [10], “Compound NOT metabolized”; in series [11], “Compound metabolized”; in series [12], “Compound metabolized”. Also, the “Bacterial Biotransformation” value in series [13] is “Compound metabolized”; in series [14] it was “Compound metabolized”; in series [15] it was “Compound NOT metabolized”; in [16] it was “Compound metabolized”.

For `COCCCC/C(=N\OCCN)c1ccc(C(F)(F)F)cc1.O=C(O)/C=C\C(=O)O` [FLUVOXAMINE MALEATE], the “Bacterial Biotransformation” value in series [1] is “Compound metabolized”; in series [2], “Compound metabolized”; in series [3] it was “Compound NOT metabolized”; in series [4], “Compound NOT metabolized”; in series [5], “Compound NOT metabolized”; in series [6] it was “Compound NOT metabolized”. Moreover, the “Bacterial Biotransformation” value is listed as “Compound NOT metabolized” in series [7]; “Compound metabolized” in series [8]; “Compound NOT metabolized” in series [9]; “Compound NOT metabolized” in [10]; “Compound metabolized” in series [11]; “Compound NOT metabolized” in series [12]. Also, the “Bacterial Biotransformation” value in [13], in series [14], in series [15] and in [16] was “Compound NOT metabolized” each time.

As for `O=C([O-])C[C@H](O)C[C@H](O)/C=C/c1c(C2CC2)nc2ccccc2c1-c1ccc(F)cc1.O=C([O-])C[C@H](O)C[C@H](O)/C=C/c1c(C2CC2)nc2ccccc2c1-c1ccc(F)cc1.[Ca+2]` [PITAVASTATIN CALCIUM], the “Bacterial Biotransformation” value in series [1] is “Compound metabolized”; in [2], “Compound metabolized”; in series [3] it was “Compound metabolized”; in [4], “Compound metabolized”; in [5], “Compound metabolized”; in [6], “Compound NOT metabolized”. Also, the “Bacterial Biotransformation” value in series [7] is listed as “Compound NOT metabolized”; in [8] it was “Compound metabolized”; in [9], “Compound metabolized”; in series [10], “Compound metabolized”; in [11], “Compound metabolized”; in series [12], “Compound metabolized”. The “Bacterial Biotransformation” value in series [13] is “Compound metabolized”; in series [14], “Compound metabolized”; in series [15] it was “Compound NOT metabolized”; in series [16], “Compound NOT metabolized”.

On to `CC#CCn1c(N2CCC[C@@H](N)C2)nc2c1c(=O)n(Cc1nc(C)c3ccccc3n1)c(=O)n2C` [LINAGLIPTIN], for which the “Bacterial Biotransformation” value in [1] was “Compound NOT metabolized”; in [2], “Compound NOT metabolized”; in series [3], “Compound metabolized”; in series [4] it was “Compound NOT metabolized”; in [5], “Compound NOT metabolized”; in series [6] it was “Compound NOT metabolized”. Also, the “Bacterial Biotransformation” value in series [7] was “Compound NOT metabolized”; in series [8] it was “Compound NOT metabolized”; in series [9] it was “Compound metabolized”; in series [11], “Compound NOT metabolized”; in series [12], “Compound NOT metabolized”; in series [13] it was “Compound NOT metabolized”. The “Bacterial Biotransformation” value in series [14], in series [15] and in series [16] was “Compound NOT metabolized” in each case.

Turning to `CN1CCN(C2=Nc3ccccc3Oc3ccc(Cl)cc32)CC1.O=C(O)CCC(=O)O` [LOXAPINE SUCCINATE], the “Bacterial Biotransformation” value in series [1], in series [2], in series [3], in series [4], in series [5] and in series [6] was “Compound NOT metabolized” throughout. In addition, the “Bacterial Biotransformation” value in [7], in series [8], in series [9], in series [10], in series [11] and in series [12] was “Compound NOT metabolized” throughout. In addition, the “Bacterial Biotransformation” value in [13], in series [14], in series [15] and in series [16] was “Compound NOT metabolized” throughout.

Consider `CN(C)CCc1c[nH]c2ccc(CS(=O)(=O)N3CCCC3)cc12` [ALMOTRIPTAN], for which the “Bacterial Biotransformation” value in series [1] is reported as “Compound metabolized”; in [2] it was “Compound metabolized”; in [3] it was “Compound NOT metabolized”; in series [4] it was “Compound NOT metabolized”; in series [5], “Compound NOT metabolized”; in series [6], “Compound NOT metabolized”. Besides, the “Bacterial Biotransformation” value in [7] is “Compound NOT metabolized”; in series [8], “Compound metabolized”; in [9] it was “Compound NOT metabolized”; in series [10], “Compound NOT metabolized”; in [11], “Compound metabolized”; in series [12], “Compound NOT metabolized”. The “Bacterial Biotransformation” value in series [13], in series [14], in series [15] and in series [16] was “Compound NOT metabolized” in each case.

Regarding `N[C@@H](Cc1ccc(N(CCCl)CCCl)cc1)C(=O)O`, the “Bacterial Biotransformation” value in series [2] is given as “Compound metabolized”; in series [3], “Compound metabolized”; in series [4], “Compound metabolized”; in [5], “Compound metabolized”; in series [6] it was “Compound NOT metabolized”; in series [7], “Compound NOT metabolized”. Besides, the “Bacterial Biotransformation” value in [8], in [9], in series [10], in series [11], in [14] and in series [15] was “Compound metabolized” each time. Further, the “Bacterial Biotransformation” value in series [16] is given as “Compound NOT metabolized”.

On to `CCOC(=O)C1=C(C)NC(C)=C(C(=O)OC)C1c1cccc([N+](=O)[O-])c1` (centres undefined) [NITRENDIPINE], for which the “Bacterial Biotransformation” value in series [1] is “Compound metabolized”; in [2], “Compound metabolized”; in series [3], “Compound metabolized”; in series [4] it was “Compound metabolized”; in series [5] it was “Compound NOT metabolized”; in series [6], “Compound metabolized”. Besides, the “Bacterial Biotransformation” value is given as “Compound metabolized” in series [7]; “Compound metabolized” in [8]; “Compound metabolized” in [9]; “Compound metabolized” in series [10]; “Compound metabolized” in series [11]; “Compound NOT metabolized” in series [12]. For the same molecule, the “Bacterial Biotransformation” value in series [13], in series [14], in series [15] and in series [16] was “Compound metabolized” each time.
